Patent US8188077B2, “Apoptosis-inducing agents for the treatment of cancer and immune and autoimmune diseases” (Abbott Laboratories, priority 2010, dated 2012)
pKi: −log10 of the molar value.

Biological target: T1, Bcl-2 protein (Homo sapiens, UniProt P10415, DELINS35-91DVEENRTEAPEGTESE, form not given)
T1 construct: fused on or other part: Bcl-xL (Q07817) residues 29-44 stand in place of Bcl-2's own unstructured loop 35-91; The C-terminal membrane anchor (208-239) is absent
Test: Bcl-2 fluorescence polarization assay (FPA) binding
Details: 10 nM Bcl-2 protein, 1 nM fluorescein-labeled BAX peptide, room temperature, read-out: Bcl-2 FPA 11pt Ki
Procedure: Assays for the inhibition of Bcl-2 were performed in 96-well microtiter plates. Compounds of the instant invention were diluted in DMSO to concentrations between […] and 10 pM and introduced into each well of the plate. A mixture totaling 125 µL per well of assay buffer (20 mM phosphate buffer (pH 7.4), 1 mM EDTA, 0.05% PF-68), 10 nM of Bcl-2 protein (prepared according to the procedure described in PNAS 2001, 98, 3012-3017), 1 nM fluorescein-labeled BAX peptide (prepared in-house), and the DMSO solution of the compound of the instant invention was shaken for 2 minutes and placed in a LJL Analyst (LJL Bio Systems, CA. Polarization was measured at room temperature using a continuous Fluorescein lamp (excitation 485 nm, emission 530 nm). Ki values were calculated using Microsoft Excel.

T1 sequence (P10415 with tags, fused parts or gaps with the stated changes): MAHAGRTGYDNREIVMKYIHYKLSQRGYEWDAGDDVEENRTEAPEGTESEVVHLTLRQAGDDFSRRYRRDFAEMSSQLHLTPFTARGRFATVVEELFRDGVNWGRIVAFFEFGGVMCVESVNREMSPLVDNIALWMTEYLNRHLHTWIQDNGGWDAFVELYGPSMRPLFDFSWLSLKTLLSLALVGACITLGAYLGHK

Structure (SMILES) | pKi
O=C(NS(=O)(=O)c1ccc(NC2CCOCC2)c([N+](=O)[O-])c1)c1ccc(N2CCN(C(=O)C3C4CC5CC(C4)CC3C5)CC2)cc1 (stereo not drawn) [Example 42, 4-{4-[adamantan-2-ylcarbonyl]piperazin-1-yl}-N-{[3-nitro-4-(tetrahydro-2H-pyran-4-ylamino)phenyl]sulfonyl}benzamide] | 5.61
C[C@@H]1[C@@H](N(C(=O)CCc2ccccc2)C2CCN(c3ccc(C(=O)NS(=O)(=O)c4ccc(N[C@H](CCN5CCOCC5)CSc5ccccc5)c(S(=O)(=O)C(F)(F)F)c4)cc3)CC2)C[C@H]2C[C@@H]1C2(C)C [Example 9, N-[(4-{[(2R)-4-(morpholin-4-yl)-1-(phenylthio)butan-2-yl]amino}-3-[(trifluoromethyl)sulfonyl]phenyl)sulfonyl]-4-(4-{(3-phenylpropanoyl)[(1S,2S,3S,5R)-2,6,6-trimethylbicyclo[3.1.1]hept-3-yl]amino}piperidin-1-yl)benzamide] | > 7.70
Cc1cc(-c2ccccc2CN2CCN(c3ccc(C(=O)NS(=O)(=O)c4ccc(NCC5CCOCC5)c([N+](=O)[O-])c4)cc3)CC2)c2nc(C34CC5CC(CC(C5)C3)C4)cn2c1 [Example 25, 4-(4-{2-[2-(adamantan-1-yl)-6-methylimidazo[1,2-a]pyridin-8-yl]benzyl}piperazin-1-yl)-N-({3-nitro-4-[(tetrahydro-2H-pyran-4-ylmethyl)amino]phenyl}sulfonyl)benzamide] | 6.01
CC(=O)N(C1CCN(c2ccc(C(=O)NS(=O)(=O)c3ccc(NCC4CCCCC4)c([N+](=O)[O-])c3)cc2)CC1)[C@H]1C[C@H]2C[C@@H]([C@@H]1C)C2(C)C [Example 2, 4-(4-{acetyl[(1S,2S,3S,5R)-2,6,6-trimethylbicyclo[3.1.1]hept-3-yl]amino}piperidin-1-yl)-N-({4-[(cyclohexylmethyl)amino]-3-nitrophenyl}sulfonyl)benzamide] | 6.66
C[C@@H]1[C@@H](N(CCCc2ccccc2)c2ccc(-c3ccc(C(=O)NS(=O)(=O)c4ccc(NCC5CCCCC5)c([N+](=O)[O-])c4)cc3)cc2)C[C@H]2C[C@@H]1C2(C)C [Example 7, N-({4-[(cyclohexylmethyl)amino]-3-nitrophenyl}sulfonyl)-4′-{(3-phenylpropyl)[(1S,2S,3S,5R)-2,6,6-trimethylbicyclo[3.1.1]hept-3-yl]amino}biphenyl-4-carboxamide] | 5.90
C[C@@H]1[C@@H](NC(=O)C23CCC(C=C2c2ccccc2CN2CCN(c4ccc(C(=O)NS(=O)(=O)c5ccc(NCC6CCOCC6)c([N+](=O)[O-])c5)cc4)CC2)C3(C)C)C[C@H]2C[C@@H]1C2(C)C [Example 36, 7,7-dimethyl-2-{2-[(4-{4-[({3-nitro-4-[(tetrahydro-2H-pyran-4-ylmethyl)amino]phenyl}sulfonyl)carbamoyl]phenyl}piperazin-1-yl)methyl]phenyl}-N-[(1S,2S,3S,5R)-2,6,6-trimethylbicyclo[3.1.1]hept-3-yl]bicyclo[2.2.1]hept-2-ene-1-carboxamide] | 6.92
CC1(C)C2C=C(c3ccccc3CN3CCN(c4ccc(C(=O)NS(=O)(=O)c5ccc(NCC6CCOCC6)c([N+](=O)[O-])c5)cc4)CC3)C1(C(=O)NCC13CC4CC(CC(C4)C1)C3)CC2 (stereo not drawn) [Example 37, N-(adamantan-1-ylmethyl)-7,7-dimethyl-2-{2-[(4-{4-[({3-nitro-4-[(tetrahydro-2H-pyran-4-ylmethyl)amino]phenyl}sulfonyl)carbamoyl]phenyl}piperazin-1-yl)methyl]phenyl}bicyclo[2.2.1]hept-2-ene-1-carboxamide] | 6.78
CC1(C)C2C=C(c3ccccc3CN3CCN(c4ccc(C(=O)NS(=O)(=O)c5ccc(NCC6CCOCC6)c([N+](=O)[O-])c5)cc4)CC3)C1(C(=O)Nc1ccccc1)CC2 (stereo not drawn) [Example 35, 7,7-dimethyl-2-{2-[(4-{4-[({3-nitro-4-[(tetrahydro-2H-pyran-4-ylmethyl)amino]phenyl}sulfonyl)carbamoyl]phenyl}piperazin-1-yl)methyl]phenyl}-N-phenylbicyclo[2.2.1]hept-2-ene-1-carboxamide] | 7.66
O=C(NS(=O)(=O)c1ccc(NC2CCOCC2)c([N+](=O)[O-])c1)c1ccc(NCC2C3CC4CC(C3)CC2C4)cc1 (stereo not drawn) [Example 50, 4-{[adamantan-2-ylmethyl]amino}-N-{[3-nitro-4-(tetrahydro-2H-pyran-4-ylamino)phenyl]sulfonyl}benzamide] | 5.45
C[C@@H]1[C@@H](N(C(=O)Cc2ccccc2)C2CCN(c3ccc(C(=O)NS(=O)(=O)c4ccc(NCC5CCCCC5)c([N+](=O)[O-])c4)cc3)CC2)C[C@H]2C[C@@H]1C2(C)C [Example 5, N-({4-[(cyclohexylmethyl)amino]-3-nitrophenyl}sulfonyl)-4-(4-{(phenylacetyl)[(1S,2S,3S,5R)-2,6,6-trimethylbicyclo[3.1.1]hept-3-yl]amino}piperidin-1-yl)benzamide] | 7.23
O=C(NS(=O)(=O)c1ccc(NCC2CCCCC2)c([N+](=O)[O-])c1)c1ccc2cc(-c3ccc(O)c(C45CC6CC(CC(C6)C4)C5)c3)ccc2c1 [Example 48, 6-{3-[adamantan-1-yl]-4-hydroxyphenyl}-N-({4-[(cyclohexylmethyl)amino]-3-nitrophenyl}sulfonyl)-2-naphthamide] | 5.86

Continued, values first:

pKi | Structure (SMILES)
6.56 | O=C(NS(=O)(=O)c1ccc(NCC2CCOCC2)c([N+](=O)[O-])c1)c1ccc(N2CCN(Cc3ccccc3-c3ccc(-c4nc(C56CC7CC(CC(C7)C5)C6)cs4)s3)CC2)cc1 [Example 63, 4-[4-(2-{5-[4-(adamantan-1-yl)-1,3-thiazol-2-yl]-2-thienyl}benzyl)piperazin-1-yl]-N-({3-nitro-4-[(tetrahydro-2H-pyran-4-ylmethyl)amino]phenyl}sulfonyl)benzamide]
5.62 | O=C(NS(=O)(=O)c1ccc(NC2CCOCC2)c([N+](=O)[O-])c1)c1ccc(NC2C3CC4CC(C3)CC2C4)cc1 (stereo not drawn) [Example 84, 4-[adamantan-2-ylamino]-N-{[3-nitro-4-(tetrahydro-2H-pyran-4-ylamino)phenyl]sulfonyl}benzamide]
> 7.70 | CC1(C)[C@H]2C=C(c3ccccc3C=C3CCN(c4ccc(C(=O)NS(=O)(=O)c5ccc(NCC6CCOCC6)c([N+](=O)[O-])c5)cc4)CC3)[C@]1(C)CC2 [Example 61, N-({3-nitro-4-[(tetrahydro-2H-pyran-4-ylmethyl)amino]phenyl}sulfonyl)-4-(4-{2-[(1R,4R)-1,7,7-trimethylbicyclo[2.2.1]hept-2-en-2-yl]benzylidene}piperidin-1-yl)benzamide]
8.10 | CN1c2ccccc2-c2ccccc2C1c1ccccc1CN1CCN(c2ccc(C(=O)NS(=O)(=O)c3ccc(NCC4CCOCC4)c([N+](=O)[O-])c3)cc2)CC1 (stereo not drawn) [Example 66, 4-{4-[2-(5-methyl-5,6-dihydrophenanthridin-6-yl)benzyl]piperazin-1-yl}-N-({3-nitro-4-[(tetrahydro-2H-pyran-4-ylmethyl)amino]phenyl}sulfonyl)benzamide]
6.55 | O=C(NS(=O)(=O)c1ccc(NCC2CCOCC2)c([N+](=O)[O-])c1)c1ccc(N2CCN(Cc3ccccc3-c3ccc(-c4nc(-c5ccccc5)cs4)s3)CC2)cc1 [Example 62, N-({3-nitro-4-[(tetrahydro-2H-pyran-4-ylmethyl)amino]phenyl}sulfonyl)-4-(4-{2-[5-(4-phenyl-1,3-thiazol-2-yl)-2-thienyl]benzyl}piperazin-1-yl)benzamide]
7.03 | COc1cccc(OC)c1C(=O)c1sccc1-c1ccccc1C=C1CCN(c2ccc(C(=O)NS(=O)(=O)c3ccc(NCC4CCOCC4)c([N+](=O)[O-])c3)cc2)CC1 [Example 68, 4-(4-{2-[2-(2,6-dimethoxybenzoyl)-3-thienyl]benzylidene}piperidin-1-yl)-N-({3-nitro-4-[(tetrahydro-2H-pyran-4-ylmethyl)amino]phenyl}sulfonyl)benzamide]
6.45 | CC12CC3CC(C)(C1)CC(N1CCN(c4ccc(C(=O)NS(=O)(=O)c5ccc(NCC6CCCCC6)c([N+](=O)[O-])c5)cc4)CC1)(C3)C2 [Example 55, N-({4-[(cyclohexylmethyl)amino]-3-nitrophenyl}sulfonyl)-4-{4-[3,5-dimethyladamantan-1-yl]piperazin-1-yl}benzamide]
< 5.20 | O=C(NS(=O)(=O)c1ccc(NC2CCOCC2)c([N+](=O)[O-])c1)c1ccc(N2CCC(NC(=O)C34CC5CC(CC(C5)C3)C4)CC2)cc1 [Example 83, N-{1-[4-({[3-nitro-4-(tetrahydro-2H-pyran-4-ylamino)phenyl]sulfonyl}carbamoyl)phenyl]piperidin-4-yl}adamantane-1-carboxamide]
> 7.70 | CC1(C)O[C@@H]2[C@@H](CO[C@@]3(COS(=O)(=O)NC(=O)c4ccc(N5CCN(Cc6ccccc6-c6ccc(Cl)cc6)CC5)cc4)OC(C)(C)O[C@@H]23)O1 [Example 56, [(3 aS,5aR,8aR,8bS)-2,2,7,7-tetramethyltetrahydro-3aH-bis[1,3]dioxolo[4,5-b:4′,5′-d]pyran-3a-yl]methyl (4-{4-[(4′-chlorobiphenyl-2-yl)methyl]piperazin-1-yl}benzoyl)sulfamate]
6.54 | C[C@@H]1[C@@H](Nc2ccc(C=C3CCN(c4ccc(C(=O)NS(=O)(=O)c5ccc(NCC6CCOCC6)c([N+](=O)[O-])c5)cc4)CC3)cc2)C[C@H]2C[C@@H]1C2(C)C [Example 72, N-({3-nitro-4-[(tetrahydro-2H-pyran-4-ylmethyl)amino]phenyl}sulfonyl)-4-[4-(4-{[(1S,2S,3S,5R)-2,6,6-trimethylbicyclo[3.1.1]hept-3-yl]amino}benzylidene)piperidin-1-yl]benzamide]
